Laboratory results as given in the NIST ThermoML archive (doi:10.1021/acs.jced.7b00107).
Values joined by “and” are separate entries in the source; they are usually repeats but may differ in a detail not shown here. Identical values can stand only once.

Experiment: molar heat capacity at constant pressure
Settings: 101.33 kPa, Small (less than 1 g) adiabatic calorimetry

Cl.NC12CC3CC(CC(C3)C1)C2 [1-aminoadamantane hydrochloride]
Settings	molar heat capacity at constant pressure
5 K, Crystal 3	0.585 J/K/mol
5.01 K, Crystal 3	0.5801 J/K/mol
5.25 K, Crystal 3	0.6835 J/K/mol
5.49 K, Crystal 3	0.7946 J/K/mol
5.75 K, Crystal 3	0.916 J/K/mol
6 K, Crystal 3	1.051 J/K/mol
6.3 K, Crystal 3	1.22 J/K/mol
6.62 K, Crystal 3	1.42 J/K/mol
6.95 K, Crystal 3	1.642 J/K/mol
7.29 K, Crystal 3	1.891 J/K/mol
7.64 K, Crystal 3	2.153 J/K/mol
7.99 K, Crystal 3	2.437 J/K/mol
8.34 K, Crystal 3	2.747 J/K/mol
8.7 K, Crystal 3	3.078 J/K/mol
9.06 K, Crystal 3	3.426 J/K/mol
9.43 K, Crystal 3	3.794 J/K/mol
9.79 K, Crystal 3	4.174 J/K/mol
10 K, Crystal 3	4.396 J/K/mol
10.17 K, Crystal 3	4.569 J/K/mol
10.64 K, Crystal 3	5.116 J/K/mol
11.22 K, Crystal 3	5.781 J/K/mol
11.81 K, Crystal 3	6.479 J/K/mol
12.4 K, Crystal 3	7.208 J/K/mol
13 K, Crystal 3	7.971 J/K/mol
13.6 K, Crystal 3	8.754 J/K/mol
14.21 K, Crystal 3	9.533 J/K/mol
14.82 K, Crystal 3	10.38 J/K/mol
15 K, Crystal 3	10.64 J/K/mol
15.54 K, Crystal 3	11.36 J/K/mol
16.37 K, Crystal 3	12.56 J/K/mol
17.21 K, Crystal 3	13.72 J/K/mol
18.05 K, Crystal 3	14.85 J/K/mol
18.89 K, Crystal 3	15.98 J/K/mol
19.74 K, Crystal 3	17.1 J/K/mol
20 K, Crystal 3	17.48 J/K/mol
20.86 K, Crystal 3	18.62 J/K/mol
22.27 K, Crystal 3	20.49 J/K/mol
23.7 K, Crystal 3	22.36 J/K/mol
25 K, Crystal 3	24 J/K/mol
25.12 K, Crystal 3	24.15 J/K/mol
26.55 K, Crystal 3	25.89 J/K/mol
27.96 K, Crystal 3	27.53 J/K/mol
29.45 K, Crystal 3	29.22 J/K/mol
30 K, Crystal 3	29.84 J/K/mol
31.06 K, Crystal 3	31 J/K/mol
32.82 K, Crystal 3	32.84 J/K/mol
34.59 K, Crystal 3	34.6 J/K/mol
35 K, Crystal 3	34.98 J/K/mol
36.37 K, Crystal 3	36.26 J/K/mol
38.14 K, Crystal 3	37.9 J/K/mol
39.92 K, Crystal 3	39.49 J/K/mol
40 K, Crystal 3	39.56 J/K/mol
41.79 K, Crystal 3	41.08 J/K/mol
43.77 K, Crystal 3	42.73 J/K/mol
45 K, Crystal 3	43.74 J/K/mol
45.75 K, Crystal 3	44.38 J/K/mol
47.72 K, Crystal 3	45.9 J/K/mol
49.71 K, Crystal 3	47.41 J/K/mol
50 K, Crystal 3	47.63 J/K/mol
51.69 K, Crystal 3	48.89 J/K/mol
53.68 K, Crystal 3	50.26 J/K/mol
55.67 K, Crystal 3	51.64 J/K/mol
57.67 K, Crystal 3	52.99 J/K/mol
59.67 K, Crystal 3	54.32 J/K/mol
60 K, Crystal 3	54.53 J/K/mol
61.67 K, Crystal 3	55.65 J/K/mol
63.67 K, Crystal 3	56.94 J/K/mol
65.68 K, Crystal 3	58.17 J/K/mol
67.69 K, Crystal 3	59.45 J/K/mol
69.7 K, Crystal 3	60.69 J/K/mol
70 K, Crystal 3	60.92 J/K/mol
71.71 K, Crystal 3	62 J/K/mol
73.72 K, Crystal 3	63.24 J/K/mol
75.74 K, Crystal 3	64.48 J/K/mol
77.75 K, Crystal 3	65.74 J/K/mol
78.45 K, Crystal 3	66.2 J/K/mol
79.78 K, Crystal 3	66.97 J/K/mol
80 K, Crystal 3	67.11 J/K/mol
80.56 K, Crystal 3	67.47 J/K/mol
81.8 K, Crystal 3	68.23 J/K/mol
82.48 K, Crystal 3	68.62 J/K/mol
83.83 K, Crystal 3	69.44 J/K/mol
84.4 K, Crystal 3	69.79 J/K/mol
86.32 K, Crystal 3	71.01 J/K/mol
88.24 K, Crystal 3	72.23 J/K/mol
90 K, Crystal 3	73.32 J/K/mol
90.17 K, Crystal 3	73.44 J/K/mol
92.09 K, Crystal 3	74.67 J/K/mol
94.02 K, Crystal 3	75.9 J/K/mol
95.95 K, Crystal 3	77.18 J/K/mol
97.89 K, Crystal 3	78.44 J/K/mol
99.83 K, Crystal 3	79.74 J/K/mol
100 K, Crystal 3	79.81 J/K/mol
100.61 K, Crystal 3	80.3 J/K/mol
101.77 K, Crystal 3	81.04 J/K/mol
102.13 K, Crystal 3	81.29 J/K/mol
103.66 K, Crystal 3	82.26 J/K/mol
103.71 K, Crystal 3	82.35 J/K/mol
105.19 K, Crystal 3	83.26 J/K/mol
105.66 K, Crystal 3	83.7 J/K/mol
106.71 K, Crystal 3	84.46 J/K/mol
107.61 K, Crystal 3	85.07 J/K/mol
108.24 K, Crystal 3	85.55 J/K/mol
109.57 K, Crystal 3	86.53 J/K/mol
109.77 K, Crystal 3	86.68 J/K/mol
110 K, Crystal 3	86.83 J/K/mol
110.61 K, Crystal 3	87.3 J/K/mol
111.3 K, Crystal 3	87.82 J/K/mol
111.52 K, Crystal 3	88.04 J/K/mol
111.99 K, Crystal 3	88.23 J/K/mol
112.83 K, Crystal 3	89.22 J/K/mol
113 K, Crystal 3	89.28 J/K/mol
113.48 K, Crystal 3	89.74 J/K/mol
114.01 K, Crystal 3	90.15 J/K/mol
114.36 K, Crystal 3	90.6 J/K/mol
115.02 K, Crystal 3	91.42 J/K/mol
115.44 K, Crystal 3	92 J/K/mol
115.56 K, Crystal 3	91.67 J/K/mol
115.89 K, Crystal 3	92.64 J/K/mol
116.03 K, Crystal 3	92.78 J/K/mol
116.09 K, Crystal 3	92.4 J/K/mol
116.58 K, Crystal 3	93.36 J/K/mol
117.03 K, Crystal 3	94.87 J/K/mol
117.07 K, Crystal 3	94.53 J/K/mol
117.39 K, Crystal 3	96.19 J/K/mol
117.4 K, Crystal 3	96.04 J/K/mol
117.56 K, Crystal 3	95.93 J/K/mol
118.03 K, Crystal 3	98.29 J/K/mol
118.05 K, Crystal 3	97.56 J/K/mol
118.53 K, Crystal 3	100.2 J/K/mol
118.9 K, Crystal 3	105.3 J/K/mol
119.01 K, Crystal 3	104 J/K/mol
119.02 K, Crystal 3	105.6 J/K/mol
119.31 K, Crystal 3	108.3 J/K/mol
119.48 K, Crystal 3	110.1 J/K/mol
119.95 K, Crystal 3	112.9 J/K/mol
119.99 K, Crystal 3	111.4 J/K/mol
120 K, Crystal 2	94.01 J/K/mol
120 K, Crystal 3	94.01 J/K/mol
120.37 K, Crystal 2	108.5 J/K/mol
120.42 K, Crystal 2	108.5 J/K/mol
120.89 K, Crystal 2	104.8 J/K/mol
120.95 K, Crystal 2	106.2 J/K/mol
121.24 K, Crystal 2	112.4 J/K/mol
121.37 K, Crystal 2	108.6 J/K/mol
121.81 K, Crystal 2	125.5 J/K/mol
121.84 K, Crystal 2	120 J/K/mol
121.91 K, Crystal 2	126.5 J/K/mol
122.28 K, Crystal 2	146.1 J/K/mol
122.69 K, Crystal 2	168 J/K/mol
122.76 K, Crystal 2	187.7 J/K/mol
123.07 K, Crystal 1	165.2 J/K/mol and 227.7 J/K/mol
123.1 K, Crystal 1	96.21 J/K/mol
123.1 K, Crystal 2	96.21 J/K/mol
123.13 K, Crystal 1	176.4 J/K/mol
123.47 K, Crystal 1	148 J/K/mol
123.61 K, Crystal 1	138.3 J/K/mol
123.92 K, Crystal 1	106.3 J/K/mol
124.41 K, Crystal 1	99.7 J/K/mol
124.5 K, Crystal 1	100.8 J/K/mol
124.56 K, Crystal 1	99.57 J/K/mol
124.9 K, Crystal 1	99.18 J/K/mol
125.12 K, Crystal 1	99.65 J/K/mol
125.39 K, Crystal 1	98.8 J/K/mol
125.57 K, Crystal 1	98.89 J/K/mol
125.88 K, Crystal 1	98.68 J/K/mol
126.03 K, Crystal 1	99.11 J/K/mol
126.58 K, Crystal 1	99.15 J/K/mol
127.3 K, Crystal 1	99.61 J/K/mol
127.57 K, Crystal 1	99.64 J/K/mol
129.1 K, Crystal 1	100.5 J/K/mol
129.28 K, Crystal 1	100.6 J/K/mol
130 K, Crystal 1	101 J/K/mol
130.63 K, Crystal 1	101.5 J/K/mol
131.26 K, Crystal 1	101.8 J/K/mol
132.16 K, Crystal 1	102.5 J/K/mol
133.24 K, Crystal 1	103.2 J/K/mol
133.7 K, Crystal 1	103.5 J/K/mol
135.22 K, Crystal 1	104.5 J/K/mol
135.23 K, Crystal 1	104.6 J/K/mol
136.76 K, Crystal 1	105.6 J/K/mol
137.2 K, Crystal 1	105.9 J/K/mol
138.29 K, Crystal 1	106.7 J/K/mol
139.19 K, Crystal 1	107.3 J/K/mol
139.83 K, Crystal 1	107.7 J/K/mol
140 K, Crystal 1	107.9 J/K/mol
141.18 K, Crystal 1	108.6 J/K/mol
141.36 K, Crystal 1	108.7 J/K/mol
142.89 K, Crystal 1	109.4 J/K/mol
143.17 K, Crystal 1	109.5 J/K/mol
144.42 K, Crystal 1	109.9 J/K/mol
145.16 K, Crystal 1	110.1 J/K/mol
145.95 K, Crystal 1	110.4 J/K/mol
147.16 K, Crystal 1	110.9 J/K/mol
147.49 K, Crystal 1	111.1 J/K/mol
149.02 K, Crystal 1	111.7 J/K/mol
149.15 K, Crystal 1	111.8 J/K/mol
150 K, Crystal 1	112.2 J/K/mol
150.57 K, Crystal 1	112.4 J/K/mol
151.15 K, Crystal 1	112.7 J/K/mol
152.11 K, Crystal 1	113.3 J/K/mol
153.15 K, Crystal 1	113.8 J/K/mol
153.64 K, Crystal 1	114.2 J/K/mol
155.14 K, Crystal 1	114.9 J/K/mol
155.18 K, Crystal 1	114.9 J/K/mol
156.72 K, Crystal 1	115.7 J/K/mol
157.14 K, Crystal 1	116.1 J/K/mol
158.25 K, Crystal 1	116.7 J/K/mol
159.14 K, Crystal 1	117.2 J/K/mol
159.79 K, Crystal 1	117.6 J/K/mol
160 K, Crystal 1	117.7 J/K/mol
161.14 K, Crystal 1	118.4 J/K/mol
161.32 K, Crystal 1	118.5 J/K/mol
162.86 K, Crystal 1	119.5 J/K/mol
163.14 K, Crystal 1	119.6 J/K/mol
164.39 K, Crystal 1	120.4 J/K/mol
165.15 K, Crystal 1	120.8 J/K/mol
165.92 K, Crystal 1	121.2 J/K/mol
167.15 K, Crystal 1	122 J/K/mol
167.45 K, Crystal 1	122.3 J/K/mol
168.98 K, Crystal 1	123.2 J/K/mol
169.15 K, Crystal 1	123.3 J/K/mol
170 K, Crystal 1	123.8 J/K/mol
170.51 K, Crystal 1	124.1 J/K/mol
171.16 K, Crystal 1	124.6 J/K/mol
172.04 K, Crystal 1	125 J/K/mol
173.17 K, Crystal 1	125.8 J/K/mol
173.57 K, Crystal 1	126 J/K/mol
175.1 K, Crystal 1	127 J/K/mol
175.17 K, Crystal 1	127 J/K/mol
176.62 K, Crystal 1	127.9 J/K/mol
177.18 K, Crystal 1	128.3 J/K/mol
178.14 K, Crystal 1	128.9 J/K/mol
179.19 K, Crystal 1	129.6 J/K/mol
179.67 K, Crystal 1	130 J/K/mol
180 K, Crystal 1	130.1 J/K/mol
181.19 K, Crystal 1	130.9 J/K/mol
181.2 K, Crystal 1	130.9 J/K/mol
182.7 K, Crystal 1	131.9 J/K/mol
183.21 K, Crystal 1	132.2 J/K/mol
184.22 K, Crystal 1	132.8 J/K/mol
185.23 K, Crystal 1	133.5 J/K/mol
185.74 K, Crystal 1	133.8 J/K/mol
187.24 K, Crystal 1	134.8 J/K/mol
187.25 K, Crystal 1	134.8 J/K/mol
188.76 K, Crystal 1	135.8 J/K/mol
189.25 K, Crystal 1	136.2 J/K/mol
190 K, Crystal 1	136.6 J/K/mol
190.27 K, Crystal 1	136.9 J/K/mol
191.27 K, Crystal 1	137.4 J/K/mol
191.79 K, Crystal 1	137.9 J/K/mol
193.28 K, Crystal 1	138.8 J/K/mol
193.3 K, Crystal 1	138.9 J/K/mol
194.8 K, Crystal 1	139.9 J/K/mol
195.3 K, Crystal 1	140.1 J/K/mol
